According to ChEMBL document CHEMBL1201862, “PubChem BioAssay data set” (2004):
Activity calls are given as the source filed them.

Columns and labels:
[1] = target: Dual specificity tyrosine-phosphorylation-regulated kinase 1A (Rattus norvegicus, UniProt Q63470); format: biochemical, Homo sapiens
[2] = system: HeLa; assay: HeLa cell cytotoxicity, dose response, cytotoxicity control, 24 h, cherry-picked samples (AID 504726); format: functional, cell-based; conditions: Homo sapiens;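 note: potency for cytotoxicity as loss of luminescence signal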
[3] = target: T1, Zinc finger protein mex-5 (Caenorhabditis elegans, UniProt Q9XUB2); assay: MEX-5/TCR-2 RNA interaction inhibitors, dose response, biochemical, C. elegans, fluorescence polarization (AID 1960)
T1 sequence (Q9XUB2 whole entry): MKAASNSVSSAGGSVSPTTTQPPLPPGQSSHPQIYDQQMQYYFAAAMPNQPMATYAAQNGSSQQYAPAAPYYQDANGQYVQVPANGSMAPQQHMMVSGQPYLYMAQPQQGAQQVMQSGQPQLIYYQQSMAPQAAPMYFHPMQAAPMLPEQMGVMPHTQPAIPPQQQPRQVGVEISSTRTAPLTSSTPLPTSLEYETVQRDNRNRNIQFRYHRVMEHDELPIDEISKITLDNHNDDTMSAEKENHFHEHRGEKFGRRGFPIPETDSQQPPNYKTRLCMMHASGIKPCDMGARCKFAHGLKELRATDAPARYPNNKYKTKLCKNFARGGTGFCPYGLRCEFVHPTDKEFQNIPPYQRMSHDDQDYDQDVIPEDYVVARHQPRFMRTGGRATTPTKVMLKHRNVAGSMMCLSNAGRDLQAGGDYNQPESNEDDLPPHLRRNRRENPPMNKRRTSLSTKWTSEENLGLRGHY

[4] = target: T2, RNA-binding protein pos-1 (Caenorhabditis elegans, UniProt G5EF15); assay: inhibitors of POS-1/mex-3 RNA binding, dose response, biochemical, fluorescence polarization (AID 1964);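 note: purified POS-1 fused to maltose binding protein made in E. coli; potency of compounds blocking POS-1 binding to fluorescent RNA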
T2 sequence (G5EF15 whole entry): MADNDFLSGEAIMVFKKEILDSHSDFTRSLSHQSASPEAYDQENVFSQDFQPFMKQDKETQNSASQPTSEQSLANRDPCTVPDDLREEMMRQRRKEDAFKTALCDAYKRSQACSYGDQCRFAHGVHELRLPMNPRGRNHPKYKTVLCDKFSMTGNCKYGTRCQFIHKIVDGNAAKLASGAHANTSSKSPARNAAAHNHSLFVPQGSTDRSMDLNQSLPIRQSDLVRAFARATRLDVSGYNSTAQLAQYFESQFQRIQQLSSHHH

[5] = target: Glucose-6-phosphate 1-dehydrogenase (Homo sapiens, UniProt P11413); assay: human G6PD enzyme inhibitors, dose response, selectivity assay for P. falciparum G6PD inhibitor project, biochemical, fluorescence (AID 504792); format: functional
[6] = target: Large T antigen (Simian virus 40, UniProt P03070); format: functional, Betapolyomavirus macacae;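 note: Confirmatory-stage PubChem screen for compounds that inhibit SV40 T antigen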
[7] = target: Cytochrome P450 3A4 (Homo sapiens, UniProt P08684);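 note: CYP3A4 tested as one member of a cytochrome P450 panel screen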
[8] = Luminescence Cell-Based Dose Response HTS to Identify Inhibitors of 5'UTR Stem-Loop Driven Prion Protein mRNA Translation in H4 Neuroglioblastoma Cells. [Related pubchem assays: 1827 (Project Summary), 1813 (Primary HTS)]; format: functional
[9] = system: HEK293; assay: cells; format: functional, cell-based; conditions: Homo sapiens
[10] = inhibitors of SNCA 5'UTR-driven reporter translation, confirmation, H4 neuroglioma cells, luminescence (AID 1988); format: functional, cell-based
[11] = system: HEK293; assay: NOD2 signaling inhibitors in MDP-stimulated cells, cell-based, uHTS, luminescence (AID 2001); format: functional; conditions: Homo sapiens
[12] = inhibitors of firefly luciferase expression or activity, dose response, H4 neuroglioma cells, luminescence (AID 1990); format: functional, cell-based
[13] = system: HEK293; assay: cells; format: functional, cell-based; conditions: Homo sapiens; remark: listed apart in the source
[14] = target: Luciferin 4-monooxygenase (Photinus pyralis, UniProt P08659); assay: firefly luciferase enzyme inhibitors, dose response, biochemical, luminescence (AID 1891)
[15] = system: HEK293; assay: NOD1 signaling inhibitors, primary screen, cell-based, luminescence, uHTS (AID 1578); format: functional; conditions: Homo sapiens
[16] = target: Nucleotide-binding oligomerization domain-containing protein 2 (Homo sapiens, UniProt Q9HC29); assay: NOD2 signaling inhibitors, cell-based, luminescence, uHTS, HEK293 (AID 1566); format: functional
[17] = system: HEK293; assay: cells; format: functional, cell-based; conditions: Homo sapiens; remark: listed apart in the source
[18] = Luminescence Cell-Based Dose Confirmation HTS to Identify Inhibitors of Platelet Dense Granule Release. [Related pubchem assays: 1663 (Primary HTS), 1678 (Summary of Project)]; format: functional
[19] = target: Prothrombin (Bos taurus, UniProt P00735); assay: thrombin inhibition, dose response, biochemical, fluorescence polarization, uHTS hits (AID 602369); format: functional
[20] = target: 26S proteasome non-ATPase regulatory subunit 14 (Homo sapiens, UniProt O00487); assay: inhibition of proteasome subunit RPN11 – biochemical, fluorescence polarization, uHTS hits, confirmation (AID 602368); format: functional
[21] = target: 72 kDa type IV collagenase (Homo sapiens, UniProt P08253); assay: Dose Response validation of uHTS RPN11 inhibitor hits using a MMP-2 Fluorescence assay.; format: functional
[22] = target: T3, Delta-type opioid receptor (Homo sapiens, UniProt P41143); assay: HTS Image-Based Screen for Antagonists of the DOR Receptor. [Related pubchem assays (depositor defined):AID1777, AID1785, AID1786, AID2133]; format: functional
[23] = target: T4, Kappa-type opioid receptor (Homo sapiens, UniProt P41145); format: functional
[24] = target: Beta-galactosidase (Escherichia coli, UniProt Q8VNN2); format: functional
[25] = target: T3, Delta-type opioid receptor; assay: HTS Image-Based Screen for Agonists of the DOR Receptor. [Related pubchem assays (depositor defined):AID1777, AID1786, AID2133]; format: functional
[26] = target: Mu-type opioid receptor (Homo sapiens, UniProt P35372); assay: HTS Image-Based Screen for Agonists of the MOR Receptor. [Related pubchem assays (depositor defined):AID1777, AID1785, AID1786, AID2133]; format: functional;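 note: imaging of beta-arrestin GFP recruitment into spots after receptor activation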
[27] = target: T4, Kappa-type opioid receptor; format: functional; remark: listed apart in the source

T3 sequence (P41143 whole entry): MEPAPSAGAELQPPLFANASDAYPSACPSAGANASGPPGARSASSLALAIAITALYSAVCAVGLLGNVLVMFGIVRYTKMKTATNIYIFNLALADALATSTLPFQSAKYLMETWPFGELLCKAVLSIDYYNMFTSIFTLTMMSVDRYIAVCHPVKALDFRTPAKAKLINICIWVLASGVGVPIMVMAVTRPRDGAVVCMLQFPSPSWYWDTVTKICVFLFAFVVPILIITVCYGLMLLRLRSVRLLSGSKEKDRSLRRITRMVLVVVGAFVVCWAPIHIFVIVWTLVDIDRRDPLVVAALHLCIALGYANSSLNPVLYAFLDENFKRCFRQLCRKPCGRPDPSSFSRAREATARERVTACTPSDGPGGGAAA
T4 sequence (P41145 whole entry): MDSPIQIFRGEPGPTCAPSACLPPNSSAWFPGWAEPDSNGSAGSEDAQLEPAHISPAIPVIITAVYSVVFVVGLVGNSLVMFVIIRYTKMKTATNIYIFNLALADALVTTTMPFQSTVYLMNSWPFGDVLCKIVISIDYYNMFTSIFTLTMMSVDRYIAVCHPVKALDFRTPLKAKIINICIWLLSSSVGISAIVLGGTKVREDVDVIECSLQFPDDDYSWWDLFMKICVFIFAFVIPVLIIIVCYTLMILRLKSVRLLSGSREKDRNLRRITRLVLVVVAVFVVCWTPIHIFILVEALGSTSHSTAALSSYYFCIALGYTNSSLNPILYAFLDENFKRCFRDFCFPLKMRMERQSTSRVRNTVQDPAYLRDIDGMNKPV
Chain of 72 kDa type IV collagenase (P08253 whole entry): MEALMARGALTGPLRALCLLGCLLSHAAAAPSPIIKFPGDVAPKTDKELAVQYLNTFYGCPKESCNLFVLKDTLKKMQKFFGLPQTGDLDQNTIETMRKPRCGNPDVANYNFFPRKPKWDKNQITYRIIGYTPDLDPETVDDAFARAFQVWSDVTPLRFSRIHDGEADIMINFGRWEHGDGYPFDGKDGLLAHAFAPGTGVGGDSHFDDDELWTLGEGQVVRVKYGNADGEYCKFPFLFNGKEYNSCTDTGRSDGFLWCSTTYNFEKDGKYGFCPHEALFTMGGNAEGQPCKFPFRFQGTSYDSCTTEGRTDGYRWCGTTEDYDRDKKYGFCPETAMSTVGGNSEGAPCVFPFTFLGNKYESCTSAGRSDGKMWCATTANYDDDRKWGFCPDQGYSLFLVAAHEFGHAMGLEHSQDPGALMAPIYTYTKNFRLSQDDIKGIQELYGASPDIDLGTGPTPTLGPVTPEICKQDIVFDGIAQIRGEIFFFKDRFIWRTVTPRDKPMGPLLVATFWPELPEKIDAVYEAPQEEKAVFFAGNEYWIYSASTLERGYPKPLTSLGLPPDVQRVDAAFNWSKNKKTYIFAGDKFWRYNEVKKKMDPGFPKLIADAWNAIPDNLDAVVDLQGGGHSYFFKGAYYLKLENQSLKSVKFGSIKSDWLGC
Chain of Beta-galactosidase (Q8VNN2 whole entry): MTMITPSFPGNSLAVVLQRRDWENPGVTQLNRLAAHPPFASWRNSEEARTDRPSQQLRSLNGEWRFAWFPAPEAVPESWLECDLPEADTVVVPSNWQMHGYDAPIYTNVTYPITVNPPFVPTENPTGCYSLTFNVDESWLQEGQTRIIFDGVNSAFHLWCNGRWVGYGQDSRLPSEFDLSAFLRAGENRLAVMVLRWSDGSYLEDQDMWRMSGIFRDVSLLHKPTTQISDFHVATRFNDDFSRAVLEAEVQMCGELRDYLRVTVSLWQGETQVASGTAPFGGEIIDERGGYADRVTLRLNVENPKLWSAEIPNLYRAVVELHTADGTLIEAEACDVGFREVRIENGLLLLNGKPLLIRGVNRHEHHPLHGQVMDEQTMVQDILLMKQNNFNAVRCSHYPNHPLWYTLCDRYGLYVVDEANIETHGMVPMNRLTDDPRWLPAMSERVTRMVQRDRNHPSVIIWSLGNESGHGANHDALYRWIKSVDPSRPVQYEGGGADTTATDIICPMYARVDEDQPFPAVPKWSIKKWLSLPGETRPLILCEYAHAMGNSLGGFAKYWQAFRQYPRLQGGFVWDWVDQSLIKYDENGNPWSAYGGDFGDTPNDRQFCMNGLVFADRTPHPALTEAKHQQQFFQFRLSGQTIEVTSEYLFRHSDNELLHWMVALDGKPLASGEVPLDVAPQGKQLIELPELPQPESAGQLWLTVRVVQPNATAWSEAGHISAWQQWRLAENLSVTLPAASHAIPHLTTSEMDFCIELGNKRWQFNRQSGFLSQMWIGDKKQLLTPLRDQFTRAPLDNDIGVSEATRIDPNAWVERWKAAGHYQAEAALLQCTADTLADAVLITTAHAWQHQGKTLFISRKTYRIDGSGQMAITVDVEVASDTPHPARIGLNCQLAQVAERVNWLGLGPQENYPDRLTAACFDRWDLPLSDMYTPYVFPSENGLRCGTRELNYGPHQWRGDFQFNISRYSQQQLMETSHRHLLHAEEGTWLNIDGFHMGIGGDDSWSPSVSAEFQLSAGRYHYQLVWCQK
Chain of 26S proteasome non-ATPase regulatory subunit 14 (O00487 whole entry): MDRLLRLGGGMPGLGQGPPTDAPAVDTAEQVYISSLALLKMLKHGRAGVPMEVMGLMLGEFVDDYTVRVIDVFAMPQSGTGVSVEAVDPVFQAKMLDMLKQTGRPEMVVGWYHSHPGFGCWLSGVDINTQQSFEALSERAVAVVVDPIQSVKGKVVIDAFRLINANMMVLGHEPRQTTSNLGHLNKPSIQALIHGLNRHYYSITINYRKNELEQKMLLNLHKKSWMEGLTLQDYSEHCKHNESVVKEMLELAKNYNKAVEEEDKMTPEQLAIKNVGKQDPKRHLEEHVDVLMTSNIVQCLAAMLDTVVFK
Chain of Luciferin 4-monooxygenase (P08659 whole entry): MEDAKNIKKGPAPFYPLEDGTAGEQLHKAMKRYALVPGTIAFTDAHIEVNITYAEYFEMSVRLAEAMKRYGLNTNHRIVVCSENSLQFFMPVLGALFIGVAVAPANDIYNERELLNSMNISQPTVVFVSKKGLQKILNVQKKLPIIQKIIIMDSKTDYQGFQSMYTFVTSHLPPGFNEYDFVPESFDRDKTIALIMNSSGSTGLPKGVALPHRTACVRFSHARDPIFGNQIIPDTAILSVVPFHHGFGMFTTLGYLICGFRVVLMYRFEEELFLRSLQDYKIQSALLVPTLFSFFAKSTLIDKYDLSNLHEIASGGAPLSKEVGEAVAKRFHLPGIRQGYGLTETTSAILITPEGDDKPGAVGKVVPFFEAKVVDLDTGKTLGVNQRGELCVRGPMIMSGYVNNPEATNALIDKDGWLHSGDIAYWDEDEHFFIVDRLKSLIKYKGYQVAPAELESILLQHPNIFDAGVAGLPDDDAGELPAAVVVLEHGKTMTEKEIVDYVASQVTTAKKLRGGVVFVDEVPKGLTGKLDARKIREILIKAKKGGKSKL
Chain of Large T antigen (P03070 whole entry): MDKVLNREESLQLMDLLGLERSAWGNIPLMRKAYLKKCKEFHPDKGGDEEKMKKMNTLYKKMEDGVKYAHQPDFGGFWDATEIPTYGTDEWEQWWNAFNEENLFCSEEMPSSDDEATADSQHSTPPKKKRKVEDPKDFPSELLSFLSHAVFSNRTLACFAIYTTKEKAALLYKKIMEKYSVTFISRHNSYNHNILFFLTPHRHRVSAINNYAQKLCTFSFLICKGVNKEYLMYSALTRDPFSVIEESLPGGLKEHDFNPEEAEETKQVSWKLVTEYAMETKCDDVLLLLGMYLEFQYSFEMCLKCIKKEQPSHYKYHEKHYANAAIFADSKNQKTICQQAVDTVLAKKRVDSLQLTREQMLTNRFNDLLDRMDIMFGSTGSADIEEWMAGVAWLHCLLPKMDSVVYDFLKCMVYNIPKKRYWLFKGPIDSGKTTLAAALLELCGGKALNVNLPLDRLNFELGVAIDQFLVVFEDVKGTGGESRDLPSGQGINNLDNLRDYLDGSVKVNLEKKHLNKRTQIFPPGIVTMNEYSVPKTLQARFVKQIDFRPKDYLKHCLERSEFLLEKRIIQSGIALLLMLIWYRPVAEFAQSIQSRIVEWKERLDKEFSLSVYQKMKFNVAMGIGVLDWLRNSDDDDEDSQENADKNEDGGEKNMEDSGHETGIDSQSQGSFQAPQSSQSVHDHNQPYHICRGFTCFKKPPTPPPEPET
Chain of Nucleotide-binding oligomerization domain-containing protein 2 (Q9HC29 whole entry, the tested form may be a part): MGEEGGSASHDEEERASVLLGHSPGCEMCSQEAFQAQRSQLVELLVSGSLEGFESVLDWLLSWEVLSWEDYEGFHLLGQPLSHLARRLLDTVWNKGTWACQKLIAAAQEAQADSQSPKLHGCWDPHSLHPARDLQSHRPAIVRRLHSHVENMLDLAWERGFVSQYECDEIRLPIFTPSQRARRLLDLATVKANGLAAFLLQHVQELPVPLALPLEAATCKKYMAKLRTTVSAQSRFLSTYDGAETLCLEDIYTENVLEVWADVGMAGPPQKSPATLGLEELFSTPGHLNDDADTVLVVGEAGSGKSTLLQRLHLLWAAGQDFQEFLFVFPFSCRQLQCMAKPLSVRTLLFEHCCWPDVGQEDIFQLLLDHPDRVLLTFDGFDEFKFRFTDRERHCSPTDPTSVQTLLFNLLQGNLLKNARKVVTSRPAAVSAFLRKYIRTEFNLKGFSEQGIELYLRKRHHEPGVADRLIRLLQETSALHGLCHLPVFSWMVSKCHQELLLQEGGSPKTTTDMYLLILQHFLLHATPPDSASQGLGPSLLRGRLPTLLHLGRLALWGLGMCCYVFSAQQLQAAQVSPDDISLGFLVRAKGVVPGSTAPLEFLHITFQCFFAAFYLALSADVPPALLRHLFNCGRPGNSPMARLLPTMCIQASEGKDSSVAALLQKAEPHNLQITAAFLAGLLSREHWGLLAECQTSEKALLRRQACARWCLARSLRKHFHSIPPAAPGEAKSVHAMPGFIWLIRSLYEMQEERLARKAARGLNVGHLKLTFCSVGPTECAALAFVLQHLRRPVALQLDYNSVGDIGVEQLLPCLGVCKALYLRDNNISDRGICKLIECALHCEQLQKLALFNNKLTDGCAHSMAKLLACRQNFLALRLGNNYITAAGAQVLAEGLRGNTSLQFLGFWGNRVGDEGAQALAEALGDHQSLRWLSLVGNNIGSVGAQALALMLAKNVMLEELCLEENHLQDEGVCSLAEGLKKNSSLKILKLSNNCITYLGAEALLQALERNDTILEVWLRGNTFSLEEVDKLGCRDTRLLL

O=C1c2ccccc2C(=O)C1c1ccccn1
AC50 [1]: 9.62 µM (active) | AC50 [2]: 139 µM (active)

COc1cc(-c2cc(=O)c3c(O)c(OC)c(OC)c(O)c3o2)ccc1O [ISOTHYMONIN]
EC50 [3]: 7.08 µM (inconclusive) | AC50 [1]: 0.892 µM (active) | EC50 [4]: 48 µM (active) | IC50 [5]: > 80 µM (inactive) | IC50 [6]: 6.77 µM (active)

CC(C)(C)C1CCC(OCC(O)CN2CCN(c3ccccc3)CC2)CC1.Cl (centres undefined)
AC50 [7]: inconclusive

Cc1cc(/C=N/Nc2ncnc(N)c2[N+](=O)[O-])c(C)n1-c1ccccc1
EC50 [8]: < 0.1 µM (active) | IC50 [9]: 1.4 µM (active) | EC50 [10]: 0.192 µM (active) | IC50 [11]: 6.1 µM (active) | EC50 [12]: 0.171 µM (active) | IC50 [13]: > 20 µM (inactive) | EC50 [14]: 1.1 µM (active) | EC50 [15]: 4.14 µM (active) | EC50 [16]: < 0.31 µM (inactive) | IC50 [17]: > 20 µM (inactive) | EC50 [18]: 3.67 µM (active)

COc1ccc2c3c([nH]c2c1)C(C)NCC3 (centres undefined)
IC50 [19]: 13.7 µM (active) | AC50 [1]: 2.99 µM (active) | IC50 [20]: 17.9 µM (active) | IC50 [21]: > 100 µM (inactive)

CC(=O)N1N=C(c2cccs2)CC1c1cccc([N+](=O)[O-])c1 (centres undefined)
IC50 [22]: > 32 µM (inactive) | IC50 [23]: 14.4 µM (active) | EC50 [24]: 20.4 µM (active) | EC50 [25]: > 32 µM (inactive) | EC50 [26]: > 32 µM (inactive) | IC50 [27]: > 32 µM
